In assay [1] the target is T1, IRAK4 (Homo sapiens, UniProt Q9NWZ3).
T1 construct: endogenous in cells; host or cells: Karpas299
T1 sequence (Q9NWZ3 1-460): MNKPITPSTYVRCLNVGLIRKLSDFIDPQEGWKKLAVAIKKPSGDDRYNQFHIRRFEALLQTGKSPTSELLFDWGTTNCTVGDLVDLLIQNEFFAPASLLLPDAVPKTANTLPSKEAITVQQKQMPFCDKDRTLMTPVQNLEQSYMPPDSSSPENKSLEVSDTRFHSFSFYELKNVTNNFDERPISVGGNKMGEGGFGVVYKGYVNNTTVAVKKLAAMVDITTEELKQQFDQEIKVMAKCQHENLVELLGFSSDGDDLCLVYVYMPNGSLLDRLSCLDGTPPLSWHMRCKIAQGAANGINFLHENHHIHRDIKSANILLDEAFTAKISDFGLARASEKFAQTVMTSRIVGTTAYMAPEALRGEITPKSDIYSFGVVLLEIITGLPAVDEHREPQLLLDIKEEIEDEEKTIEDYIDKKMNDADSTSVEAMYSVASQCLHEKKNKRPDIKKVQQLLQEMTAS
The assay can be described thus: IRAK4 Degradation Assay (Karpas299, HTRF/TR-FRET). The assay is classed as cell-based. Particulars: Karpas-299 cells. In short, it runs like this:
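Compound potency as DC50 (IC50) came from four-parameter fits of percent IRAK4 degradation. IRAK4 was measured by HTRF (665/620 nm) in lysates of Karpas299 cells seeded at 0.2 million per well. Cells had been treated with compound dilutions for 5 or 24 h.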
(In general: TR-FRET usually uses a lanthanide donor and a delayed reading to cut background.)

Assay [2] concerns the target T1, IRAK4. Description: IRAK4 Degradation Assay with Human Serum (Karpas299, HTRF/TR-FRET). The assay is classed as cell-based. Particulars: Karpas-299 in human serum, 24 hrs treatment; for DC50: read-out: IRAK4 degradtion with human serum assay DC50; for Dmax: read-out: IRAK4 degradtion with human serum assay Dmax (%). An outline of the steps: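 Remaining IRAK4 measured by TR-FRET immunoassay on lysates of Karpas299 cells exposed 24 h to compound dilution series in human serum AB. DC50 derived from a Hill-slope fit of % degradation versus concentration.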

Where [3] appears, read: 24 h treatment, maximum percentage of degradation, read-out: IRAK4 in Karpas-299 (24 h) Dmax (%).
[4] abbreviates: 24 h treatment, read-out: IRAK4 in Karpas-299 (24 h) DC50.

As to `CC(C)(O)c1cc2nn([C@H]3CC[C@H](N4CCN(CCNc5cccc6c5C(=O)N(C5CCC(=O)NC5=O)C6=O)CC4)CC3)cc2cc1NC(=O)c1ccc2cc(C#N)cnn12` (some centres unmarked) [Example 437, 3-cyano-N-(2-((1r,4r)-4-(4-(2-((2-(2,6-dioxopiperidin-3-yl)-1,3-dioxoisoindolin-4-yl)amino)ethyl)piperazin-1-yl)cyclohexyl)-6-(2-hydroxypropan-2-yl)-2H-indazol-5-yl)pyrrolo[1,2-b]pyridazine-7-carboxamide], the Dmax worked out at 99% at IRAK4 [1] (setting [3]) and 101% at IRAK4 [2]. The figures for the DC50 at IRAK4 [1] (setting [4]) and at IRAK4 [2] were 4.7 nM and 9.4 nM, respectively.

Turning to `CC(C)(O)c1cc2nn(C3CCC(N4C[C@@H]5CN(C6CCN(c7cc(F)c([C@H]8CCC(=O)NC8=O)c(F)c7)CC6)C[C@H]5C4)CC3)cc2cc1NC(=O)c1ccc2cc(C#N)cnn12` (stereo partly drawn) [Example 361, 3-cyano-N-(2-((1R,4r)-4-((3aR,6aR)-5-(1-(4-((R)-2,6-dioxopiperidin-3-yl)-3,5-difluorophenyl)piperidin-4-yl)hexahydropyrrolo[3,4-c]pyrrol-2(1H)-yl)cyclohexyl)-6-(2-hydroxypropan-2-yl)-2H-indazol-5-yl)pyrrolo[1,2-b]pyridazine-7-carboxamide], the Dmax was 97% on IRAK4 [1] (setting [3]) and 93% at IRAK4 [2]. Besides, the DC50 amounted to 4.3 nM at IRAK4 [1] (setting [4]) and 5 nM on IRAK4 [2].

For the molecule `CC(C)(O)c1cc2nn([C@H]3CC[C@H](N4CCN(CC5CN(c6cc(F)c([C@H]7CCC(=O)NC7=O)c(F)c6)C5)CC4)CC3)cc2cc1NC(=O)c1ccc2n1NCC(C#N)=C2` [Example 397, 3-cyano-N-(2-((1r,4r)-4-(4-((1-(4-((R)-2,6-dioxopiperidin-3-yl)-3,5-difluorophenyl)azetidin-3-yl)methyl)piperazin-1-yl)cyclohexyl)-6-(2-hydroxypropan-2-yl)-2H-indazol-5-yl)-1,2-dihydropyrrolo[1,2-b]pyridazine-7-carboxamide], at IRAK4 [1] (24 h treatment, maximum percentage of degradation), the “IRAK4 in Karpas-299 (24 h) Dmax (%)” value is listed as 95%. Further, the DC50 at IRAK4 [1] (setting [4]) turned out to be 1.7 nM. Moreover, on IRAK4 [2], the “IRAK4 degradtion with human serum assay Dmax (%)” value was 96% and the 50% degradation concentration (DC50) was determined as 12 nM.

Turning to `CC(C)(O)c1cc2nn(C3CCN([C@@H]4CCN(CCc5cc(F)c([C@H]6CCC(=O)NC6=O)c(F)c5)CC4(F)F)CC3)cc2cc1NC(=O)c1ccc2cc(C#N)cnn12` [Example 340, 3-cyano-N-(2-((R)-1′-(4-((R)-2,6-dioxopiperidin-3-yl)-3,5-difluorophenethyl)-3′,3′-difluoro-[1,4′-bipiperidin]-4-yl)-6-(2-hydroxypropan-2-yl)-2H-indazol-5-yl)pyrrolo[1,2-b]pyridazine-7-carboxamide], the Dmax on IRAK4 [1] (setting [3]) turned out to be 98%; at IRAK4 [2], 97%. The DC50 came to 3.4 nM on IRAK4 [1] (setting [4]) and 16 nM on IRAK4 [2].

With `Cc1cc(C2CCC(=O)NC2=O)c(F)cc1[C@H]1C[C@@H](N2CCN([C@H]3CC[C@H](n4cc5cc(NC(=O)c6ccc7cc(C#N)cnn67)c(C(C)(C)O)cc5n4)CC3)CC2)C1` (stereo partly drawn) [Example 296, 3-cyano-N-(2-((1R,4r)-4-(4-((1s,3S)-3-(4-(2,6-dioxopiperidin-3-yl)-5-fluoro-2-methylphenyl)cyclobutyl)piperazin-1-yl)cyclohexyl)-6-(2-hydroxypropan-2-yl)-2H-indazol-5-yl)pyrrolo[1,2-b]pyridazine-7-carboxamide], the Dmax at IRAK4 [1] (5 h treatment, maximum percentage of degradation, read-out: IRAK4 in Karpas-299 (5 h) Dmax (%)) came out at 91%; at IRAK4 [1] (setting [3]) it was 97%; at IRAK4 [2], 100%. Further, the half-maximal degradation concentration (DC50) came to 5.4 nM on IRAK4 [1] (5 h treatment, read-out: IRAK4 in Karpas-299 (5 h) DC50); 1.8 nM on IRAK4 [1] (setting [4]); 18 nM at IRAK4 [2].

Regarding `COC[C@@H]1CN(C2CCN(c3ccc(C4CCC(=O)NC4=O)nc3C)CC2)CCN1[C@H]1CC[C@H](n2cc3cc(NC(=O)c4ccc5cc(C#N)cnn45)c(C(C)(C)O)cc3n2)CC1` (stereo partly drawn) [Example 423, 3-cyano-N-(2-((1S,4r)-4-((2S)-4-(1-(6-(2,6-dioxopiperidin-3-yl)-2-methylpyridin-3-yl)piperidin-4-yl)-2-(methoxymethyl)piperazin-1-yl)cyclohexyl)-6-(2-hydroxypropan-2-yl)-2H-indazol-5-yl)pyrrolo[1,2-b]pyridazine-7-carboxamide], the Dmax on IRAK4 [1] (setting [3]) is 98%; on IRAK4 [2] it was 96%. In addition, the DC50 on IRAK4 [1] (setting [4]) came out at 1.1 nM; on IRAK4 [2], 3 nM.

`Cn1c(=O)n(C2CCC(=O)NC2=O)c2cccc(CCCN3CCN([C@H]4CC[C@H](n5cc6cc(NC(=O)c7ccc8cc(C#N)cnn78)c(C(C)(C)O)cc6n5)CC4)CC3)c21` (some centres unmarked) [Example 348, 3-cyano-N-(2-((1r,4r)-4-(4-(3-(1-(2,6-dioxopiperidin-3-yl)-3-methyl-2-oxo-2,3-dihydro-1H-benzo[d]imidazol-4-yl)propyl)piperazin-1-yl)cyclohexyl)-6-(2-hydroxypropan-2-yl)-2H-indazol-5-yl)pyrrolo[1,2-b]pyridazine-7-carboxamide]: the figures for the Dmax on IRAK4 [1] (setting [3]) and on IRAK4 [2] were 94% and 95%, respectively. Also, the DC50 was 0.4 nM on IRAK4 [1] (setting [4]) and 6.6 nM at IRAK4 [2].

For `COc1cc2nn([C@H]3CC[C@H](N4CCN(C(=O)C5CN(c6cc(F)c([C@H]7CCC(=O)NC7=O)c(F)c6)C5)CC4)CC3)cc2cc1NC(=O)c1ccc2cc(C#N)cnn12` [Example 336, 3-cyano-N-(2-((1r,4r)-4-(4-(1-(4-((R)-2,6-dioxopiperidin-3-yl)-3,5-difluorophenyl)azetidine-3-carbonyl)piperazin-1-yl)cyclohexyl)-6-methoxy-2H-indazol-5-yl)pyrrolo[1,2-b]pyridazine-7-carboxamide], the Dmax was 100% at IRAK4 [1] (setting [3]) and 92% at IRAK4 [2]. The DC50 at IRAK4 [1] (setting [4]) came to 0.2 nM; on IRAK4 [2], 13 nM.

Turning to `Cn1c(=O)n(C2CCC(=O)NC2=O)c2cccc(CCCN3CCN(C45CC(n6cc7cc(NC(=O)c8ccc9cc(C#N)cnn89)c(C(C)(C)O)cc7n6)(C4)C5)CC3)c21` (centres unmarked) [Example 350, 3-cyano-N-(2-(3-(4-(3-(1-(2,6-dioxopiperidin-3-yl)-3-methyl-2-oxo-2,3-dihydro-1H-benzo[d]imidazol-4-yl)propyl)piperazin-1-yl)bicyclo[1.1.1]pentan-1-yl)-6-(2-hydroxypropan-2-yl)-2H-indazol-5-yl)pyrrolo[1,2-b]pyridazine-7-carboxamide], the Dmax at IRAK4 [1] (setting [3]) is 89%; at IRAK4 [2] it was 97%. The DC50 on IRAK4 [1] (setting [4]) is 2.1 nM; on IRAK4 [2] it was 16 nM.

Consider `C[C@H]1CN(CCc2cc(F)c([C@H]3CCC(=O)NC3=O)c(F)c2)CCN1[C@H]1CC[C@H](n2cc3cc(NC(=O)c4ccc5cc(C#N)cnn45)c(C(C)(C)O)cc3n2)CC1` [Example 305, 3-cyano-N-(2-((1S,4r)-4-((S)-4-(4-((R)-2,6-dioxopiperidin-3-yl)-3,5-difluorophenethyl)-2-methylpiperazin-1-yl)cyclohexyl)-6-(2-hydroxypropan-2-yl)-2H-indazol-5-yl)pyrrolo[1,2-b]pyridazine-7-carboxamide], for which the Dmax turned out to be 96% on IRAK4 [1] (setting [3]) and 99% on IRAK4 [2]. Besides, the DC50 amounted to 1.7 nM on IRAK4 [1] (setting [4]) and 5.1 nM on IRAK4 [2].

Consider `CC(C)(O)c1cc2nn([C@H]3CC[C@H](N4CCN(C(=O)C5CCN(c6cc(F)c([C@H]7CCC(=O)NC7=O)c(F)c6)CC5)CC4)CC3)cc2cc1NC(=O)c1ccc2cc(C#N)cnn12` [Example 291], for which the Dmax on IRAK4 [1] (setting [3]) and at IRAK4 [2] was 97% throughout. Besides, the 50% degradation concentration (DC50) at IRAK4 [1] (setting [4]) was found to be 0.6 nM; on IRAK4 [2], 48 nM.

As to `COC[C@@H]1CN(C[C@@H]2CCN(c3cc(F)c([C@H]4CCC(=O)NC4=O)c(F)c3)C2)CCN1[C@H]1CC[C@H](n2cc3cc(NC(=O)c4ccc5cc(C#N)cnn45)c(C(C)(C)O)cc3n2)CC1` [Example 388, 3-cyano-N-(2-((1S,4r)-4-((S)-4-(((S)-1-(4-((R)-2,6-dioxopiperidin-3-yl)-3,5-difluorophenyl)pyrrolidin-3-yl)methyl)-2-(methoxymethyl)piperazin-1-yl)cyclohexyl)-6-(2-hydroxypropan-2-yl)-2H-indazol-5-yl)pyrrolo[1,2-b]pyridazine-7-carboxamide], the Dmax on IRAK4 [1] (setting [3]) was 97%; on IRAK4 [2] it was 98%. For the same molecule, the DC50 amounted to 1.1 nM at IRAK4 [1] (setting [4]) and 12 nM at IRAK4 [2].

One may read the Dmax as the greatest extent of degradation seen. As usually defined, the DC50 is the midpoint of the concentration-degradation curve.

For the origin of these results see patent US20250195513A1, “DEGRADATION OF IRAK4 BY CONJUGATION OF IRAK4 INHIBITORS WITH E3 LIGASE LIGAND AND METHODS OF USE” (BeiGene, Ltd., priority 2022, published 2025).
